Test results published in US12376594B2, “Pest control kit and method” (priority 2019, dated 2025).

What was measured:
[1] = test system: Welsh chafer, Hoplia philanthus grubs; assay: Field trial, control of chafer grubs in golf course; assay type: in vivo; conditions: The Grove Golf Club, nematodes 2.5 billion per hectare twice weekly, Chlorpyrifos 2 litres a.i. per hectare once
Method: Trial was conducted at The Grove Golf Club, Watford, London, UK between May 2017 and October 2018. Treatments consisted of: Heterorhabditis bacteriophora 2.5 billion/ha applied alone, Pest control kit-C 2.5 billion/ha applied with Wetting agent composition (10 L/ha) and Chlorpyrifos (Equity) 2 L a.i./ha. All treatments were applied using soil injector followed conventional boom sprayer. Soil samples were taken at 2, 4, 6, and 8 weeks post application to assess grub population.
Field trials were conducted on a naturally infested tees, green and fairways containing a mixture of Welsh chafer, Hoplia philanthus (90%), Garden chafer, Phyllopertha horticola (3%), Summer chafer, Amphimallon solstitialis (1%), May beetle, Melolontha (4%) and wireworms Agriotes species (3%) at The Grove Golf Club, Watford, and Ashridge Golf Club, Berkhamsted, UK. […] No natural nematodes were detected by baiting soil samples with Galleria mellonella larvae.
One week before treatment, the pre-treatment larval density was determined in tees, greens and fairways (see FIG. 4) by taking three 16×16×10 to 15 cm soil plugs with a shovel or golf Hole Cutter (10 cm diameter). The living larvae were counted and expressed as number of larvae per square meter. […]
The treatments included: • 1. […] The larval density after treatment was determined 2, 4, 6, or 8 weeks after nematode or chlorpyrifos application. […]

sciarid fly larvae = assay: Field trial, control of sciarid fly larvae in mushroom production; assay type: in vivo, Lycoriella spp.; conditions: first week of application
Method: Treatments consisted of: Carbofuran, Teflubenzuron, Steinernema feltiae alone or with Wetting agent composition (as Pest control kit-S). Trial was conducted in mushroom production farm in UK in 2016-17. Mushrooms were naturally infected with sciarid larvae and numbers counted week 1 and 3 post treatments. Each treatment was replicated 4 times with 15 plants/treatment.
Fungus gnats, also known as sciarid flies, found on and around growing media, are a major pest for greenhouse and polytunnel ornamental crops. The sciarid fly larvae are responsible for causing damage to an extensive variety of economically important potted plants directly through feeding on roots and stalk tissue of seedlings, cuttings and younger plants. They also cause damage indirectly through the transmission of fungal disease through the wounds caused by sciarid larvae. Pot plants known to be susceptible to sciarid attack include Poinsettia, Azalea, Cyclamen, Kalanchoe, Exacum, Gerbera, Begonia and others. All kinds of young plants and young rooted cuttings (vegetables, ornamentals and young nursery plants) are highly susceptible to sciarid larvae. […] Mushrooms were harvested for up to 4 weeks and number of dead and live larvae were counted. […]
The number of surviving larvae was transformed into percentage efficacy using the equation below and analysed using analysis of variance (ANOVA). […]

CCOP(=S)(OCC)Oc1nc(Cl)c(Cl)cc1Cl [Chlorpyrifos]
Control of chafer grubs [1]: 62%

O=C(NC(=O)c1c(F)cccc1F)Nc1cc(Cl)c(F)c(Cl)c1F [Teflubenzuron]
Sciarid fly larvae control (sciarid fly larvae): 71%
